One molecule from patent US20240199562A1, “UREA DERIVATIVES FOR TREATING UVEAL MELANOMA” (CENTRE NATIONAL DE LA RECHERCHE SCIENTIFIQUE, priority 2021, published 2024) can be followed below.

Usually IC50 stands for the midpoint of a concentration-inhibition curve.

In data set [1] the test system is MP41 cells. The experiment in a line: Tumor xenograft, intraperitoneal injection. It counts as in vivo, mice. The method, then:
FIG. 4: In vivo efficacy of MCK151 on mice treated by intraperitoneal injection. Five million MP41 cells were injected subcutaneously into the flank of 5-week-old NOD-SCID female mice. When the tumor reached 100 mm^3, mice were treated every day for 20 days, by intraperitoneal injection with placebo (dextrose water vehicle) or MCK151 (200 or 400 μg in dextrose water vehicle) • A: The tumor volume was evaluated using a calliper. The results are presented as the means±sd. ** p<0.01 • B: Tumor weight at the end of the experiment. ** p<0.01, *** p<0.001 • C: Animal weight at the end of the experiment. ns: non significant
(§1) Tumor xenograft experiments: These studies were carried out in strict accordance with the recommendations in the Guide for the Care and Use of Laboratory Animals. Our experiments were approved by the “Comité National Institutionnel d'Ethique pour l'Animal de Laboratoire”. Five million MP41 cells were injected subcutaneously into the flank of 5-week-old Nod-SDIC female mice (Janvier). When the tumor reached 100 mm3, mice were treated. The tumor volume was determined with a caliper (v=L*l2*0.5).

Data set [2] deals with MM66 cells. Briefly: Migration assay (Boyden chamber). It counts as cell-based. The method, then: FIG. 3A: Evaluation of the migration ability of uveal cells treated with MCK151. MP41 and MM66 cells migration was analysed using Boyden chamber assays in the presence/absence of MCK151 (0.1 to 2.5 μM). Representative images were shown. ** p<0.01, *** p<0.001
Migration assays: 50 000 cells were cultured in RPMI 0% FCS and seeded in Boyden chambers. After 24 h, Boyden chambers were washed with PBS. Migrative cells were fixed with paraformaldehyde 3% and colored with crystal violet.

Data set [3] deals with SLUG. The experiment in a line: SLUG protein amount by immunoblotting. It counts as cell-based. The settings on record: MP41 and MM66 cells, 2.5 μM, 0-24 h, FIG. 3C. The method, then: FIG. 3C: Slug proteins amount in uveal melanoma cells treated by MCK151. MP41 and MM66 cells were treated with MCK151 (2.5 μM) for different time (0, 2, 4, 6, 8, and 24 h). SLUG protein amounts were evaluated by immunoblotting. HSP90 is used as a loading control.
Immunoblotting: Cells were lysed in SDS 7.5%; glycerol 30%; Tris 0.3 M pH 6.8 lysis buffer. 30 μg of proteins were separated on 10% SDS—polyacrylamide gels and transferred on PVDF membranes. The following primary antibodies were used: SLUG (Cell signaling, ref:9585) and HSP90 (Cell signaling, ref:4877).
A general note: A western blot detects proteins with antibodies after separation by electrophoresis.

For data set [4], the system named is MP41 cells. Briefly: Tumor xenograft, gavage. It counts as in vivo, mice. The settings on record: orally. How it is done: FIG. 5: In vivo efficacy of MCK151 on mice treated by gavage. Five million MP41 cells were injected subcutaneously into the flank of 5-week-old NOD-SCID female mice. When the tumor reached 100 mm^3, mice were treated every day for 27 days, by gavage with placebo (10% ethanol vehicle) or MCK151 (33 or 100 mg/kg in 10% ethanol vehicle). • A: The tumor volume was evaluated using a calliper. The results are presented as the means±sd. ** p<0.01, *** p<0.001 • B: Tumor weight at the end of the experiment. ** p<0.01, *** p<0.001 ns: non significant • C: Animal weight at the end of the experiment. ns: non significant
as §1
An oral formulation (10% ethanol in ultrapure water) was developed and tested in the same in vivo model (FIG. 5). […] However, a 100 mg/kg dose reduced tumor growth (50% reduction, FIG. 5A).

For data set [5], the system named is MP41 cells. The experiment in a line: Cell viability (XTT) on uveal melanoma cells MP41. The settings on record: for IC50: MP41 cells (primary tumor). It counts as cell-based. How it is done:
(§2) FIG. 1: In vitro efficacy of MCK140 and MCK151 on uveal melanoma cells. Cells were treated for 48 hours with increasing doses of MCK140 or MCK151 and the cell viability was then evaluated by XTT.
(§3) FIG. 2A: In vitro efficacy of MCK151, Ladarixin, and AZD-5069 in uveal melanoma cells. MP41 and MM66 cells were treated for 48 hours with increasing doses of MCK151 or Ladarixin or AZD-5069 and the cell metabolism was then evaluated by XTT.
(§4) Cell culture: Uveal melanoma cells were derived from the primary tumor (eye tumor, MP38 and MP46) and one is from liver metastasis (MM66) were a kind gift from Dr. Roman Roman (Curie Institute). UM cells were cultured in RPMI medium supplemented with 20% FBS.
(§5) Cell viability (XTT): Cells (5×10^3 cells/100 μl) were incubated in a 96-well plate with different effectors for the times indicated in the figure legends. 50 μl of sodium 3′-[1-phenylaminocarbonyl)-3,4-tetrazolium]-bis(4-methoxy-6-nitro) benzene sulfonic acid hydrate (XTT) reagent was added to each well. The assay is based on the cleavage of the yellow tetrazolium salt XTT to form an orange formazan dye by metabolically active cells. Absorbance of the formazan product, reflecting cell viability, was measured at 490 nm. Each assay was performed in quadruplicate.
In general terms: Formazan colour is commonly taken as a measure of viable cells.

Data set [6] deals with MP41 cells. Briefly: ROS assay (CellROX Deep Red, cytometry). The note with it: MCK151 1, 2.5, 5 μM, Ladarixin 10 μM, FIG. 2B. It counts as cell-based. The method, then: FIG. 2B: Inhibition of ROS production by MCK151 and Ladarixin in uveal melanoma cells. MP41 cells were treated for 48 hours with increasing doses of MCK151 (1 μM, 2.5 μM, and 5 μM) or Ladarixin (10 μM) and ROS quantity was evaluated by cytometry.
ROS assay: Deep Red Reagent was used to assess the level of intracellular ROS. The CellROX/Deep Red reagent (which is initially non-fluorescent) freely enters the cells, where it is cleaved by endogenous esterases. After oxidization by ROS, the reagent becomes highly fluorescent with an absorption/emission maximal of 644/665 nm. Cells were treated 24h and incubated at 37° C. with CellROX Deep Red reagent (0.01 umol/L) for 2 h. The cells were then washed with PBS and analyzed by cytometry.

The subject of data set [7] is MM66 cells. Briefly: Cell viability (XTT) on uveal melanoma cells MM66. Format: cell-based. The method, then: as §2, §3, §4, §5
Data set [8] deals with MP38 cells. The experiment in a line: Cell viability (XTT) on uveal melanoma cells MP38. It counts as cell-based. How it is done:
as §2, §4, §5

Data set [9] has as its system MMP9 mRNA. Briefly: MMP9 mRNA levels by RT-qPCR. The settings on record: MP41 and MM66 cells, 24 hours, 2.5 μM, FIG. 3B. Format: cell-based. The method, then: FIG. 3B: MMP9 mRNA levels (AU) in uveal melanoma cells. MP41 and MM66 cells were treated for 24 hours with MCK151 (2.5 μM) and MMP9 mRNA levels were evaluated by qPCR. *** p<0.001.
Analyses by RT-qPCR: RNA from cells were purified with the RNeasy Mini Kit (Quiagen). The “QuantiTect Reverse Transcription Kit” (Qiagen) was used for cDNA obtention. The PCR program was executed on “Professional Basic Thermocycler” (Biometra). SYBR master mix plus (Eurogentec) was used for qPCR. The mRNA levels were normalized to 36B4 mRNA.
In general terms: In qPCR the cycle at which signal appears reflects the starting amount.

The structures appear in SMILES notation. Like-named read-outs stand apart in the source and are kept apart here.

Consider `O=C(Nc1cc(Cl)cc(Cl)c1)Nc1nc2ccc([N+](=O)[O-])cc2s1` [MCK151, 1-(3,5-dichlorophenyl)-3-(6-nitrobenzo[d]thiazol-2-yl)urea], for which the “inhibition of tumor growth” value in [1] (NOD-SCID mice, 400 μg dose, FIG. 4A) was found to be 73%. Further, in [1] (NOD-SCID mice, 200 or 400 μg every day for 20 days, FIG. 4A), the “growth of experimental tumors” value was “inhibited”. Further, in data set [1] (NOD-SCID mice, FIG. 4B (tumor weight)), the “tumors at the end of the experiment” value is recorded as “smaller”. The weight of mice entry in data set [1] (whatever the concentration, FIG. 4C) was “did not modify the weight of mice”. Also, the “concentration of optimal effect on migration” value in data set [2] (Boyden chamber) was found to be 0.5 µM. Besides, the migration ability result in [2] (MCK151 0.1 to 2.5 μM, FIG. 3A) is “inhibits this migration ability”. Besides, the “expression of SLUG” value in [3] was “decreases”. For the same molecule, the tumor growth result in [4] (33 mg/kg per day, FIG. 5) is listed as “had a trend to decrease tumor growth”. The “reduction of tumor growth” value in data set [4] (100 mg/kg dose, FIG. 5A) is 50%. Further, the “reduction of tumor weight” value in data set [4] (100 mg/kg dose, FIG. 5B) is recorded as 50%. The mice weight entry in [4] (33 and 100 mg/kg/day, FIG. 5C) was “did not modify mice weight”. In addition, the IC50 in [5] (48 h, Table 3, read-out: IC50 (μM) at 48 h MP41) came to 1.25 µM; in [5] (48 hours, XTT, Table 2, read-out: IC50 (μM) UM MP41), 1.25 µM; in [7] (MM66 cells (liver metastases), 48 h, Table 3, read-out: IC50 (μM) at 48 h MM66), 1.5 µM; in [7] (MM66 cells (liver metastasis), 48 hours, XTT, Table 2, read-out: IC50 (μM) UM MM66) it was 1.5 µM; in data set [8] (MP38 cells (primary tumor), 48 hours, XTT) it was 1 µM. For the same molecule, the viability of cells result in data set [5] (MP41 cells from the primary tumor, in words) is on record as “decreased the viability”; in data set [7] (MM66 cells from liver metastases, in words), “decreased the viability”; in data set [8] (MP38 cells from the primary tumor, in words), “decreased the viability”. The “metabolism of UM cells (XTT)” value is “strongly inhibits the metabolism of UM cells” in [5] (MP41 cells, 48 hours, increasing doses, FIG. 2A) and “strongly inhibits the metabolism of UM cells” in data set [7] (MM66 cells, 48 hours, increasing doses, FIG. 2A). Also, in data set [6], the “ROS production by UM cells” value was “inhibits ROS production”. Further, in data set [9], the “MMP9 mRNA levels” value was “decreases MMP9 mRNA levels”.
